In US11214803B2, “Modulators of YAP1 expression” (Ionis Pharmaceuticals, Inc., priority 2019, dated 2022):
Strand notation (5' to 3'): a small letter for the sugar, then the base; units joined by * are phosphorothioate-linked, units joined directly phosphodiester-linked; [ ] holds rarer units or linkages, { } end groups; capitals alone tell only the bases. k = constrained ethyl (cEt); [5mC] = 5-methylcytosine; d = 2'-deoxy (DNA)

System: Yap1 mRNA
Assay: Antisense inhibition of human Yap1 in A-431 cells by cEt gapmers, single dose (Example 3, RTS36584)
Format: cell-based
In short: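 A-431 cells were treated by free uptake with 2,000 nM modified oligonucleotide (3-10-3 cEt gapmers, full phosphorothioate, 5-methylcytosines) for about 48 hours. Yap1 mRNA was quantified by real-time RT-PCR, normalized to RiboGreen total RNA, and expressed as % of untreated control; asterisked values mark oligonucleotides targeting the amplicon region.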

[1] = Table 10, A-431 cells, 5,000 cells per well, free uptake, 2,000 nM oligonucleotide, approx. 48 hours, primer probe set RTS36584, Yap1 mRNA normalized to RIBOGREEN, percent of untreated control
[2] = Table 35, Yap1 mRNA as percent of untreated control, 3-10-3 cEt gapmers targeting SEQ ID NO: 1 and 2, single dose
[3] = Table 8, A-431 cells, 5,000 cells per well, free uptake, 2,000 nM, approximately 48 hours, RTS36584, normalized to RIBOGREEN, Yap1 mRNA relative to untreated control cells
[4] = Table 9, A-431 cells, 5,000 cells per well, free uptake, 2,000 nM, approximately 48 hours, RTS36584, normalized to RIBOGREEN, Yap1 mRNA relative to untreated control cells
[5] = Table 12, A-431 cells, 5,000 cells per well, free uptake, 2,000 nM modified oligonucleotide, approx. 48 hours, RTS36584, normalized to RIBOGREEN, Yap1 mRNA relative to untreated control cells
[6] = Table 11, A-431 cells, 5,000 cells per well, free uptake, 2,000 nM oligonucleotide, approx. 48 hours, primer probe set RTS36584, Yap1 mRNA normalized to RIBOGREEN, percent of untreated control
[7] = Table 13, A-431 cells, 5,000 cells per well, free uptake, 2,000 nM modified oligonucleotide, approx. 48 hours, RTS36584, normalized to RIBOGREEN, Yap1 mRNA relative to untreated control cells
[8] = Table 27, Yap1 mRNA by 3-10-3 cEt gapmers targeting SEQ ID NO.: 1, and 2, percent of untreated control
[9] = Table 28, Yap1 mRNA as percent of untreated control, 3-10-3 cEt gapmers targeting SEQ ID NO.: 1, and 2
[10] = Table 34, Yap1 mRNA as percent of untreated control, 3-10-3 cEt gapmers targeting SEQ ID NO: 1 and 2, single dose
[11] = Table 29, Yap1 mRNA as percent of untreated control, 3-10-3 cEt gapmers targeting SEQ ID NO.: 1, and 2

With “958447 (antisense kG*kT*kT*dG*dA*dG*dG*d[5mC]*dG*dG*d[5mC]*dG*dG*k[5mC]*kT*kG) [Compound 958447]” the “YAP1 (% UTC)” value [1] was 48 % UTC.
For “1074261 (antisense k[5mC]*k[5mC]*kG*dA*dG*dT*dT*d[5mC]*dA*dT*d[5mC]*dA*dT*kA*kT*kT) [compound 1074261]”, the “YAP1 (% UTC)” value [2] was 19 % UTC.
For “958367 (antisense k[5mC]*kT*kA*dG*d[5mC]*dT*dT*dG*dG*dT*dG*dG*d[5mC]*kA*kG*k[5mC]) [Compound 958367]”, the “YAP1 (% UTC)” value [3] was 105 % UTC.
In the case of “958627 (antisense kT*kT*kG*dG*dG*d[5mC]*dA*dA*dA*dG*dT*dT*d[5mC]*k[5mC]*kT*kA) [Compound 958627]”, the “YAP1 (% UTC)” value [1] is reported as 61 % UTC.
For “958591 (kT*k[5mC]*kA*d[5mC]*dA*dG*dT*dA*d[5mC]*dT*dG*d[5mC]*dT*kA*k[5mC]*kA; antisense) [Compound 958591]”, the “YAP1 (% UTC)” value [4] was 38 % UTC.
With “958784 (antisense kG*kG*k[5mC]*dT*dG*dG*dA*dT*dA*dG*dA*dA*dT*kG*k[5mC]*kT) [Compound 958784]” the “YAP1 (% UTC)” value [5] was 79 % UTC.
“1075157 (k[5mC]*k[5mC]*kA*dG*dA*dA*dA*dA*dT*d[5mC]*dA*dT*dA*kG*kT*kA; antisense) [compound 1075157]” was tested, and the “YAP1 (% UTC)” value [2] was 19 % UTC.
In the case of “958528 (kA*kG*kT*d[5mC]*dT*dT*dG*dT*dA*dA*dG*dT*dA*kA*kG*kA; antisense) [Compound 958528]”, the “YAP1 (% UTC)” value [6] is reported as 18 % UTC.
“958685 (antisense kA*kG*k[5mC]*dT*dA*dT*dG*dG*dA*dA*dA*dG*dT*kG*kT*k[5mC]) [Compound 958685]” was tested, and the “YAP1 (% UTC)” value [7] was 24 % UTC.
In the case of “958808 (kA*kG*k[5mC]*dG*dA*dT*dT*dG*dG*d[5mC]*d[5mC]*dT*d[5mC]*k[5mC]*k[5mC]*kA; antisense) [Compound 958808]”, the “YAP1 (% UTC)” value [6] is reported as 59 % UTC.
In the case of “958372 (antisense kG*kG*kT*dG*d[5mC]*dT*dA*dG*d[5mC]*dT*dG*dG*dT*kG*k[5mC]*k[5mC]) [Compound 958372]”, the “YAP1 (% UTC)” value [3] is reported as 49 % UTC.
In the case of “1074636 (antisense kA*kT*k[5mC]*dT*dA*dT*d[5mC]*dT*dT*d[5mC]*d[5mC]*d[5mC]*dA*kA*kG*k[5mC]) [compound 1074636]”, the “YAP1 (% UTC)” value (Table 26, Yap1 mRNA by 3-10-3 cEt gapmers targeting SEQ ID NO.: 1, and 2, percent of untreated control) is reported as 56 % UTC.
With “958438 (antisense k[5mC]*kG*k[5mC]*d[5mC]*d[5mC]*d[5mC]*dG*dG*d[5mC]*dT*d[5mC]*d[5mC]*dA*k[5mC]*kT*kG) [Compound 958438]” the “YAP1 (% UTC)” value [6] was 61 % UTC.
For “1076557 (kA*kA*k[5mC]*dA*dA*dA*dT*dA*d[5mC]*d[5mC]*dA*dG*dG*kT*kT*k[5mC]; antisense) [compound 1076557]”, the “YAP1 (% UTC)” value [8] was 111 % UTC.
For “958759 (antisense kG*k[5mC]*k[5mC]*dT*dA*dT*d[5mC]*dG*d[5mC]*d[5mC]*d[5mC]*d[5mC]*dA*kA*kG*k[5mC]) [Compound 958759]”, the “YAP1 (% UTC)” value [5] was 61 % UTC.
In the case of “1075021 (antisense kT*kT*kA*d[5mC]*dA*dA*d[5mC]*d[5mC]*dT*dA*dG*dA*dT*kT*kT*kG) [compound 1075021]”, the “YAP1 (% UTC)” value [8] is reported as 68 % UTC.
“958455 (antisense kA*kG*kA*dG*dG*dA*dA*dT*dG*dA*dG*d[5mC]*dT*k[5mC]*kG*kA) [Compound 958455]” was tested, and the “YAP1 (% UTC)” value [7] was 43 % UTC.
For “958754 (antisense k[5mC]*k[5mC]*kT*dT*dA*dG*dG*dA*dA*dG*dG*d[5mC]*dT*k[5mC]*k[5mC]*k[5mC]) [Compound 958754]”, the “YAP1 (% UTC)” value [5] was 31 % UTC.
“1075925 (antisense kA*kA*k[5mC]*d[5mC]*dT*dA*dT*dA*dT*dT*dA*dT*dT*kT*kG*k[5mC]) [compound 1075925]” was tested, and the “YAP1 (% UTC)” value [2] was 28 % UTC.
In the case of “958709 (antisense kT*k[5mC]*kA*dA*dT*d[5mC]*dT*dA*dT*dG*dA*dG*dA*k[5mC]*k[5mC]*k[5mC]) [Compound 958709]”, the “YAP1 (% UTC)” value [5] is reported as 57 % UTC.
“1074254 (antisense kA*kT*k[5mC]*dT*dG*dG*dG*dA*d[5mC]*dA*dG*d[5mC]*dA*kT*kG*kG) [compound 1074254]” was tested, and the “YAP1 (% UTC)” value [9] was 13 % UTC.
“1074740 (kG*kG*kA*d[5mC]*dT*d[5mC]*dT*dT*dA*dG*dG*dT*d[5mC]*kT*k[5mC]*k[5mC]; antisense) [compound 1074740]” was tested, and the “YAP1 (% UTC)” value [10] was 75 % UTC.
In the case of “1075989 (kG*k[5mC]*kT*dA*dA*dA*dA*dT*dT*dA*dA*dG*d[5mC]*kT*kT*k[5mC]; antisense) [compound 1075989]”, the “YAP1 (% UTC)” value [2] is reported as 78 % UTC.
With “1074991 (antisense kA*kA*kT*dT*dA*dT*dT*dT*dG*dA*d[5mC]*dT*d[5mC]*k[5mC]*k[5mC]*k[5mC]) [compound 1074991]” the “YAP1 (% UTC)” value [11] was 60 % UTC.
For “958799 (antisense kA*kT*kT*dA*d[5mC]*dT*d[5mC]*dA*dA*dT*d[5mC]*dA*dT*kG*kG*kT) [Compound 958799]”, the “YAP1 (% UTC)” value [5] was 2 % UTC.
For “958765 (antisense kG*kT*kA*d[5mC]*dA*dG*dG*dA*dG*dA*dG*dA*dT*kT*kG*k[5mC]) [Compound 958765]”, the “YAP1 (% UTC)” value [7] was 37 % UTC.
With “958668 (kG*kT*kG*dA*dT*d[5mC]*dT*dG*dT*dG*dA*dG*dA*kG*kG*kT; antisense) [Compound 958668]” the “YAP1 (% UTC)” value [6] was 2 % UTC.
“1074511 (kG*kA*kT*dA*d[5mC]*dA*dT*dT*d[5mC]*d[5mC]*dA*d[5mC]*dT*kA*k[5mC]*k[5mC]; antisense) [compound 1074511]” was tested, and the “YAP1 (% UTC)” value [11] was 9 % UTC.
In the case of “1074957 (antisense kA*kA*k[5mC]*d[5mC]*d[5mC]*dG*dG*dG*dT*dT*dT*dT*dT*kG*kT*k[5mC]) [compound 1074957]”, the “YAP1 (% UTC)” value [8] is reported as 102 % UTC.
In the case of “1076436 (k[5mC]*kA*kT*dT*dA*d[5mC]*dT*dA*d[5mC]*dT*d[5mC]*dT*dG*kT*k[5mC]*k[5mC]; antisense) [compound 1076436]”, the “YAP1 (% UTC)” value [10] is reported as 39 % UTC.
For “1075957 (k[5mC]*kT*kA*dT*dA*dA*dA*dG*d[5mC]*dA*dA*dT*dG*k[5mC]*kG*kA; antisense) [compound 1075957]”, the “YAP1 (% UTC)” value [2] was 28 % UTC.
For “1074677 (antisense k[5mC]*kT*kA*d[5mC]*dT*dG*dG*d[5mC]*dA*dA*dA*dT*dT*kA*kT*kA) [compound 1074677]”, the “YAP1 (% UTC)” value [2] was 22 % UTC.
For “1076372 (antisense k[5mC]*kA*kA*dT*dA*dA*dG*dA*dA*d[5mC]*dG*dA*dA*k[5mC]*k[5mC]*kT) [compound 1076372]”, the “YAP1 (% UTC)” value [10] was 76 % UTC.
For “1074637 (antisense kA*kA*kT*d[5mC]*dT*dA*dT*d[5mC]*dT*dT*d[5mC]*d[5mC]*d[5mC]*kA*kA*kG) [compound 1074637]”, the “YAP1 (% UTC)” value [8] was 36 % UTC.
In the case of “1076271 (k[5mC]*kG*kG*d[5mC]*dA*dA*d[5mC]*dA*dA*d[5mC]*dA*dA*dA*kA*kT*kG; antisense) [compound 1076271]”, the “YAP1 (% UTC)” value [11] is reported as 18 % UTC.
For “958717 (antisense kA*kA*kT*dA*dA*dT*dA*dT*dA*dG*d[5mC]*dT*dT*kA*k[5mC]*kG) [Compound 958717]”, the “YAP1 (% UTC)” value [1] was 11 % UTC.
In the case of “958516 (k[5mC]*kT*kG*d[5mC]*dA*dG*dA*d[5mC]*dT*dG*d[5mC]*d[5mC]*d[5mC]*k[5mC]*kA*kA; antisense) [Compound 958516]”, the “YAP1 (% UTC)” value [4] is reported as 38 % UTC.
For “958751 (antisense kT*k[5mC]*kA*dA*dT*dG*d[5mC]*dA*dG*dG*dA*dT*dT*k[5mC]*k[5mC]*kA) [Compound 958751]”, the “YAP1 (% UTC)” value [4] was 30 % UTC.
For “958451 (antisense k[5mC]*kA*k[5mC]*dG*dA*dT*d[5mC]*dT*dG*dA*dT*dG*d[5mC]*k[5mC]*k[5mC]*kG) [Compound 958451]”, the “YAP1 (% UTC)” value [4] was 10 % UTC.
In the case of “1076175 (k[5mC]*kA*kA*dT*dA*dG*dG*dT*dA*dA*d[5mC]*dA*dG*kG*kT*kA; antisense) [compound 1076175]”, the “YAP1 (% UTC)” value [11] is reported as 15 % UTC.
In the case of “958517 (kT*k[5mC]*kT*dA*dG*dA*dA*d[5mC]*dA*d[5mC]*dT*dA*dA*kA*k[5mC]*kT; antisense) [Compound 958517]”, the “YAP1 (% UTC)” value [1] is reported as 88 % UTC.
For “958743 (antisense kG*kA*k[5mC]*dT*dA*dT*dA*dA*dA*dG*dG*dG*dT*kT*kT*kA) [Compound 958743]”, the “YAP1 (% UTC)” value [6] was 30 % UTC.
In the case of “1074542 (kA*kG*kG*d[5mC]*dA*d[5mC]*dT*dA*dT*d[5mC]*d[5mC]*dA*d[5mC]*kA*kG*kT; antisense) [compound 1074542]”, the “YAP1 (% UTC)” value [9] is reported as 21 % UTC.
For “958671 (k[5mC]*kA*kT*dT*dA*dT*dA*dT*dG*dG*d[5mC]*dA*d[5mC]*k[5mC]*k[5mC]*kA; antisense) [Compound 958671]”, the “YAP1 (% UTC)” value [4] was 19 % UTC.
“1075348 (antisense kT*k[5mC]*kA*d[5mC]*dA*dA*dA*dA*d[5mC]*d[5mC]*d[5mC]*dT*dA*k[5mC]*kA*k[5mC]) [compound 1075348]” was tested, and the “YAP1 (% UTC)” value [10] was 96 % UTC.
In the case of “958364 (antisense k[5mC]*kA*kT*dG*dT*dT*dG*dT*dT*dG*dT*d[5mC]*dT*kG*kA*kT) [Compound 958364]”, the “YAP1 (% UTC)” value [3] is reported as 19 % UTC.
